# Earlier results as cited in PubChem BioAssay AID1259409 (Chemical Carcinogenesis Research Information System (CCRIS), 2018).
# Several values for one entry are separate records, joined by “and”; a condition that tells them apart may be missing. Equal values may be shown once.
# Test system: rodent chemically induced tumor inhibition, incidence and multiplicity
# Test: CCRIS tumor inhibitor studies
# Conditions: for tumour outcome (control, treated, inhibition, significance): Promoter: NONE USED; for outcome: Carcinogen: 1,2-Dimethylhydrazine dihydrochloride (306-37-6), Route [Inhibitor]: Oral, Species: Rat, Strain/Sex: Fischer 344/male, Target Tissue: Type of Lesion: Colon: tumors, Dose [Carcinogen]: 20 mg/kg once a wk for 4 wk, Promoter: None
compound,measurement,setting,value
S=C=NCCCCc1ccccc1,"tumour outcome (control, treated, inhibition, significance)","Carcinogen: 4-(METHYLNITROSAMINO)-1-(3-PYRIDYL)-1-BUTANONE, 64091-91-4, Dose [Inhibitor]: 0, 0.2 UMOL 1/D FOR 4 D ADMINISTERED PRIOR TO CARCINOGEN TREATMENT (STUDY DURATION:116D), Route [Inhibitor]: GAVAGE, Species: MOUSE, Strain/Sex: STRAIN A, Target Tissue: Type of Lesion: LUNG: ADENOMA, Dose [Carcinogen]: 10 UMOL ONCE 2 HR AFTER FINAL DOSE OF INHIBITOR","100%, 100%, 0%, not significant"
same,"tumour outcome (control, treated, inhibition, significance)","Carcinogen: 4-(METHYLNITROSAMINO)-1-(3-PYRIDYL)-1-BUTANONE, 64091-91-4, Dose [Inhibitor]: 0, 1 UMOL 1/D FOR 4 D ADMINISTERED PRIOR TO CARCINOGEN TREATMENT (STUDY DURATION:116 D), Route [Inhibitor]: GAVAGE, Species: MOUSE, Strain/Sex: STRAIN A, Target Tissue: Type of Lesion: LUNG: ADENOMA, Dose [Carcinogen]: 10 UMOL ONCE 2 HR AFTER FINAL DOSE OF INHIBITOR","100%, 42%, 58%, p<0.05"
same,"tumour outcome (control, treated, inhibition, significance)","Carcinogen: 4-(METHYLNITROSAMINO)-1-(3-PYRIDYL)-1-BUTANONE, 64091-91-4, Dose [Inhibitor]: 0, 5 UMOL 1/D FOR 4 D ADMINISTERED PRIOR TO CARCINOGEN TREATMENT (STUDY DURATION: 116D), Route [Inhibitor]: GAVAGE, Species: MOUSE, Strain/Sex: STRAIN A, Target Tissue: Type of Lesion: LUNG: ADENOMA, Dose [Carcinogen]: 10 UMOL ONCE 2 HR AFTER FINAL DOSE OF INHIBITOR","100%, 11%, 89%, p<0.05"
same,"tumour outcome (control, treated, inhibition, significance)","Carcinogen: 4-(METHYLNITROSAMINO)-1-(3-PYRIDYL)-1-BUTANONE, 64091-91-4, Dose [Inhibitor]: 0, 5 UMOL 1/D FOR 4 D ADMINISTERED PRIOR TO CARCINOGEN DOSE (STUDY DURATION: 116 D), Route [Inhibitor]: GAVAGE, Species: MOUSE, Strain/Sex: STRAIN-A, Target Tissue: Type of Lesion: LUNG: ADENOMA, Dose [Carcinogen]: 10 UMOL IN SALINE ADMINISTERED 2 HR POST LAST AGENT DOSE","100%, 32%, 68%, p<0.001"
same,"tumour outcome (control, treated, inhibition, significance)","Carcinogen: 4-(N-NITROSOMETHYLAMINO)-1-(3-PYRIDYL)-1-BUTANONE, 64091-91-4, Dose [Inhibitor]: 0, 5 UMOL/D FOR 4 CONSECUTIVE DAYS (STUDY DURATION: 16.5 WK), Route [Inhibitor]: GAVAGE, Species: MOUSE, Strain/Sex: STRAIN-A/FEMALE, Target Tissue: Type of Lesion: LUNG: ADENOMA, Dose [Carcinogen]: 10 UMOL ONCE 2 HR POST LAST AGENT DOSE","100%, 32%, 68%, not calculated"
same,"tumour outcome (control, treated, inhibition, significance)","Carcinogen: N-NITROSOMETHYLBENZYLAMINE, 937-40-6, Dose [Inhibitor]: 0, 0.4 UMOL/G IN DIET FOR 25 WK BEGINNING 2 WK PRIOR TO CARCINOGEN TREATMENT (STUDY DURATION: 25 WK), Route [Inhibitor]: ORAL, Species: RAT, Strain/Sex: F344/MALE, Target Tissue: Type of Lesion: ESOPHAGUS: TUMOR, Dose [Carcinogen]: 0.5 MG/KG BW IN 20% DMSO 1/WK FOR 15 WK","100%, 93%, 7%, not significant"
same,"tumour outcome (control, treated, inhibition, significance)","Carcinogen: N-NITROSOMETHYLBENZYLAMINE, 937-40-6, Dose [Inhibitor]: 0, 1 UMOL/G IN DIET FOR 25 WK BEGINNING 2 WK PRIOR TO CARCINOGEN TREATMENT (STUDY DURATION: 25 WK), Route [Inhibitor]: ORAL, Species: RAT, Strain/Sex: F344/MALE, Target Tissue: Type of Lesion: ESOPHAGUS: TUMOR, Dose [Carcinogen]: 0.5 MG/KG BW IN 20% DMSO 1/WK FOR 15 WK","100%, 93%, 7%, not significant"
same,"tumour outcome (control, treated, inhibition, significance)","Carcinogen: N-NITROSOMETHYLBENZYLAMINE, 937-40-6, Dose [Inhibitor]: 0, 2.5 UMOL/G IN DIET FOR 25 WK BEGINNING 2 WK PRIOR TO CARCINOGEN TREATMENT (STUDY DURATION: 25 WK), Route [Inhibitor]: ORAL, Species: RAT, Strain/Sex: F344/MALE, Target Tissue: Type of Lesion: ESOPHAGUS: TUMOR, Dose [Carcinogen]: 0.5 MG/KG BW IN 20% DMSO 1/WK FOR 15 WK","100%, 100%, 0%, not significant"
CC1=CCC(C(C)(C)O)CC1O (stereo not drawn),"tumour outcome (control, treated, inhibition, significance)","Carcinogen: 7,12-DIMETHYLBENZ[A]ANTHRACENE, 57-97-6, Dose [Inhibitor]: 0, 1% IN DIET FOR 3 WK BEGINNING 2 WK PRIOR TO CARCINOGEN DOSE (STUDY DURATION: 20 WK), Route [Inhibitor]: ORAL, Species: RAT, Strain/Sex: WISTAR/FEMALE, Target Tissue: Type of Lesion: MAMMARY GLAND: CARCINOMA, Dose [Carcinogen]: 50 MG/KG IN SESAME OIL ONCE","80%, 52%, 35%, not calculated and 98%, 84%, 14%, not significant"
O=c1ccc2cc(O[C@@H]3O[C@H](CO)[C@@H](O)[C@H](O)[C@H]3O)c(O)cc2o1,outcome,"Dose [Inhibitor]: 0.05% in tap water beginning 7 d before first carcinogen administration to end of last carcinogen administration, animal",5 (31%) vs 10 (62.5% in positive controls) (p <0.05)
same,outcome,Dose [Inhibitor]: 0.05% in tap water beginning after last carcinogen administration to end of 16 wk study,9 (56.3%) vs 10 (62.5%) in positive controls; ns
same,"tumour outcome (control, treated, inhibition, significance)","Carcinogen: BENZO[A]PYRENE, 50-32-8, Dose [Inhibitor]: 25 MG IN 0.1 ML DMSO 3/WK ADMINISTERED SIMULTANEOUSLY WITH CARCINOGEN FOR DURATION OF STUDY (STUDY DURATION: 368 D), Route [Inhibitor]: DERMAL, Species: MOUSE, Strain/Sex: ICR/FEMALE, Target Tissue: Type of Lesion: SKIN: PAPILLOMA, Dose [Carcinogen]: 5 UG IN 0.1 ML DMSO 3/WK FOR DURATION OF STUDY","13/50 (26%), 0/50 (0%), 100%, not calculated"
same,"tumour outcome (control, treated, inhibition, significance)","Carcinogen: BENZO[A]PYRENE, 50-32-8, Dose [Inhibitor]: 25 MG IN 0.1 ML DMSO 3/WK ADMINISTERED SIMULTANEOUSLY WITH CARCINOGEN FOR DURATION OF STUDY (STUDY DURATION: 368 D), Route [Inhibitor]: DERMAL, Species: MOUSE, Strain/Sex: ICR/FEMALE, Target Tissue: Type of Lesion: SKIN: SQUAMOUS CARCINOMA, Dose [Carcinogen]: 5 UG IN 0.1 ML DMSO THAT ALSO CONTAINED AGENT, 3/WK, FOR DURATION OF STUDY","6/50 (12%), 0/50 (0%), 100%, not calculated"
